{"source": "patent US8846001B2", "about": "(GE Healthcare Limited, priority 2009, dated 2014)", "key": {"[1]": {"target": "T1, avidin (Gallus gallus, UniProt P02701)", "T1 construct": "avidin (lyophilised powder, from egg white); purchased Sigma-Aldrich; host or cells: egg white", "T1 sequence (P02701 25-152)": "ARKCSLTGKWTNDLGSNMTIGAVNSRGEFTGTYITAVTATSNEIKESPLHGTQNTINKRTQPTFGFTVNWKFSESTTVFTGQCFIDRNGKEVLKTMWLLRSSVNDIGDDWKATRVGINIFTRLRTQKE", "assay": "Avidin binding saturation in solution, percentage binding determined by HPLC", "settings": "2-128 nmol ligand, 2 nmol avidin, 5 min, room temperature", "method": "The percentage binding was determined by HPLC analysis.\nThe incubation was carried out during 5 min at room temperature with varied ligand concentration resulting in ligand/avidin ratio of 0.25, 1, 4 and 16. Data are presented as mean±SD (n=2). […] The specific binding presented as the avidin consumption in percentage was plotted against the ratio of total molar concentration of added ligands and avidin. The result was analyzed by nonlinear regression using the GraphPad Prism Software."}, "[2]": {"tested_on": "porcine islets", "settings": "porcine islets in vitro; cited from earlier work"}}, "data": [{"smiles": "O=C(O)CCCC[C@@H]1SC[C@@H]2NC(=O)N[C@@H]21", "note": "[Biotin, 5-[(3aS,4S,6aR)-2-oxohexahydro-1H-thieno[3,4-d]imidazol-4-yl]pentanoic acid]", "values": [{"measurement": "binding to avidin in solution (in words)", "setting": "[1]", "result": "highest binding"}]}, {"smiles": "OC[C@H]1OC(O)[C@H]([18F])[C@@H](O)[C@@H]1O", "note": "(some centres unmarked) [[^18F]FDG]", "values": [{"measurement": "half-life of retention", "setting": "[2]", "result": 2.358, "unit": "h"}]}]}
